Data published in ChEMBL document CHEMBL4428133, “Tyrosyl-DNA phosphodiesterase inhibitors: Progress and potential” (Bioorg Med Chem, 2016).
pEC50, pIC50, pKi: −log10 of the molar value.

Key:
[1] = target: T1, Tyrosyl-DNA phosphodiesterase 1 (Homo sapiens, UniProt Q9NUW8); experiment: Inhibition of TDP1 (unknown origin) using 14-mer duplex oligonucleotide [32P]-D14Y as substrate incubated for 20 mins by PAGE analysis
[2] = target: T1, Tyrosyl-DNA phosphodiesterase 1; experiment: Inhibition of human N-terminal His-tagged TDP1 expressed in Escherichia coli BL21 using [32P]-D14Y duplex DNA as substrate incubated for 20 mins by PAGE analysis
[3] = Non-competitive inhibition of human 7721 cell membrane-derived phospholipase D using phosphatidylcholine as substrate preincubated for 10 mins followed by substrate addition in presence of PIP2 by Cornish-Bowden plot analysis
[4] = target: T1, Tyrosyl-DNA phosphodiesterase 1; experiment: Inhibition of N-terminal His-tagged TDP1 (unknown origin) expressed in Escherichia coli BL21(DE3) using 5'-6-FAM-AGGATCTAAAAGACTT-3BHQ-3' as substrate preincubated for 30 mins followed by substrate addition by fluorescence assay
MCF7 = experiment: Growth inhibition of human MCF7 cells at 10 uM after 96 hrs in presence of camptothecin by MTT assay relative to camptothecin alone; type: functional; details: MCF7, 96 h, read-out: GI
[5] = target: T2, Tyrosyl-DNA phosphodiesterase 2 (Homo sapiens, UniProt O95551); experiment: Inhibition of human N-terminal His-tagged TDP2 expressed in Escherichia coli JM109(DE3) using 5'-Y-TCCGTTGAAGCCTGCTTT-3' as substrate incubated for 60 mins by microplate reader analysis
T2 sequence (O95551 whole entry): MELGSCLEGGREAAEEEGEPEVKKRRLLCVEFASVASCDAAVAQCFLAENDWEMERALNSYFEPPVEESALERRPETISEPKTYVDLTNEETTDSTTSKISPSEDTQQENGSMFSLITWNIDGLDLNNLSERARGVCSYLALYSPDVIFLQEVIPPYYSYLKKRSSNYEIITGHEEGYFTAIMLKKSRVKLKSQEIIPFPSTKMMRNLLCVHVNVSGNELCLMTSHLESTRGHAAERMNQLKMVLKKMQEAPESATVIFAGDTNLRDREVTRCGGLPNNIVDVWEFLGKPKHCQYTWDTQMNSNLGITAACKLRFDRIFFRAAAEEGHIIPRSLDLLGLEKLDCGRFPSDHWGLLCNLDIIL

[6] = target: T1, Tyrosyl-DNA phosphodiesterase 1; experiment: Inhibition of recombinant TDP1 (unknown origin) using 5'-32P-labeled N14Y DNA substrate incubated for 20 mins by PAGE analysis
[7] = target: T1, Tyrosyl-DNA phosphodiesterase 1; experiment: Inhibition of recombinant TDP1 (unknown origin) using 5'-32P-labeled N14Y DNA substrate incubated for 15 mins by PAGE analysis
[8] = target: T2, Tyrosyl-DNA phosphodiesterase 2; experiment: Inhibition of human recombinant TDP2 using 18-mer single stranded 5'-32P-labeled cordycepin DNA substrate incubated for 15 mins by PAGE analysis
[9] = Inhibition of human Jurkat cell membrane-derived protein tyrosine phosphatase using o-phospho-L-tyrosine as substrate incubated for 15 mins by malachite green staining based assay
DNA topoisomerase 1 = target: T3, DNA topoisomerase 1 (Homo sapiens, UniProt P11387); experiment: Inhibition of topoisomerase-1 (unknown origin) using pBR 322 DNA as substrate
T3 sequence (P11387 whole entry): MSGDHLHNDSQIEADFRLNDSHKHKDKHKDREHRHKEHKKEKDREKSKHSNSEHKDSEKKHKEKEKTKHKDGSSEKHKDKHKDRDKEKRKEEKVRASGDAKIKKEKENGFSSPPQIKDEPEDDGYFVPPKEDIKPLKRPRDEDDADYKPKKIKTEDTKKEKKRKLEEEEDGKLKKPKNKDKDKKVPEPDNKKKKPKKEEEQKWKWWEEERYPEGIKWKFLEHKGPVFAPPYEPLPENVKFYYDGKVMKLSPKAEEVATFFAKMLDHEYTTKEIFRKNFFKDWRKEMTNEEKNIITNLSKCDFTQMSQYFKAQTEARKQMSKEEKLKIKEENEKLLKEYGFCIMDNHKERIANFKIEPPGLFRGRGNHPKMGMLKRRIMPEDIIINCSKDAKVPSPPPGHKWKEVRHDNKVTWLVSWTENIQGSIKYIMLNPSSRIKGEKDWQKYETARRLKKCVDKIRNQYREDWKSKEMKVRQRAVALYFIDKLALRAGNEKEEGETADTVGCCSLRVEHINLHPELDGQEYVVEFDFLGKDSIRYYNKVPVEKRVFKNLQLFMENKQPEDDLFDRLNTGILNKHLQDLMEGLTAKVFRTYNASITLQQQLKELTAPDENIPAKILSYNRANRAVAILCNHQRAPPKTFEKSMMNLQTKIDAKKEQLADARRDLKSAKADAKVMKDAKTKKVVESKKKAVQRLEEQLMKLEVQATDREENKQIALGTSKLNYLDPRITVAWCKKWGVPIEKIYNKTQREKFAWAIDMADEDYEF

[10] = target: T2, Tyrosyl-DNA phosphodiesterase 2; experiment: Inhibition of TDP2 (unknown origin)

T1 sequence (Q9NUW8 whole entry): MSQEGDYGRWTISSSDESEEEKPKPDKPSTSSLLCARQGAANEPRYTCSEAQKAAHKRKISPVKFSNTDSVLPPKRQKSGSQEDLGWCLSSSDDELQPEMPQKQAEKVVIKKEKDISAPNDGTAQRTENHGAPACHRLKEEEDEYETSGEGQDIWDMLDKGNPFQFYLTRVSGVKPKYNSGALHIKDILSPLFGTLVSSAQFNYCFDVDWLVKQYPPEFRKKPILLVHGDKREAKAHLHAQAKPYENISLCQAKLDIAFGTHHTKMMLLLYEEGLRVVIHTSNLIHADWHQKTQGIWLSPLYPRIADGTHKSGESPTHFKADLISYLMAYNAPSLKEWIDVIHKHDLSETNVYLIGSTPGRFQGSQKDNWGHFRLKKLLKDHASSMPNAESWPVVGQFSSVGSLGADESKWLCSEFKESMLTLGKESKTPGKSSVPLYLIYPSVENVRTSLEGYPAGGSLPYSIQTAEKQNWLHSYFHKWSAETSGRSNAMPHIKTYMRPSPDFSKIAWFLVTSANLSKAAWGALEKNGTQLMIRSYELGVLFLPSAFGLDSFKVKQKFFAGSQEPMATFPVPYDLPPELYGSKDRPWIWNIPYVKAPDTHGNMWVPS

NC[C@@H]1O[C@H](O[C@H]2[C@@H](O)[C@H](O[C@@H]3[C@@H](O)[C@H](N)C[C@H](N)[C@H]3O[C@H]3O[C@H](CO)[C@@H](O)C[C@H]3N)O[C@@H]2CO)[C@H](N)[C@@H](O)[C@@H]1O[C@H]1O[C@H](CO)[C@@H](O)[C@H](O)[C@@H]1O [LIVIDOMYCIN]
pIC50 [1]: 1.52

C=C(NC(=O)C(=C)NC(=O)c1csc(C2=N[C@@H]3c4csc(n4)[C@H]4NC(=O)c5csc(n5)[C@H]([C@](C)(O)[C@@H](C)O)NC(=O)[C@H]5CSC(=N5)/C(=C/C)NC(=O)[C@H]([C@@H](C)O)NC(=O)c5csc(n5)[C@]3(CC2)NC(=O)[C@H](C)NC(=O)C(=C)NC(=O)[C@H](C)NC(=O)[C@H]([C@@H](C)CC)N[C@@H]2C=Cc3c([C@H](C)O)cc(nc3[C@H]2O)C(=O)O[C@@H]4C)n1)C(N)=O [THIOSTREPTON]
pIC50 [2]: 2.74

NCC1O[C@H](O[C@H]2[C@@H](O)[C@H](O[C@@H]3[C@@H](O)[C@H](N)C[C@H](N)[C@H]3O[C@H]3O[C@H](CN)[C@@H](O)[C@H](O)[C@H]3N)O[C@@H]2CO)[C@H](N)[C@@H](O)[C@@H]1O (some centres undefined)
pKi [3]: 2.06

O=C1NC(=S)NC(=O)C1=Cc1ccco1
pIC50 [4]: 6.15 | inhibition of growth at 10 µM (MCF7): 25%

Cc1ccc(C(=O)Nc2ccc(S(=O)(=O)O)c3cc(S(=O)(=O)O)cc(S(=O)(=O)O)c23)cc1NC(=O)c1cccc(NC(=O)Nc2cccc(C(=O)Nc3cc(C(=O)Nc4ccc(S(=O)(=O)O)c5cc(S(=O)(=O)O)cc(S(=O)(=O)O)c45)ccc3C)c2)c1 [SURAMIN]
pEC50 [5]: 4.62 | pIC50 [6]: 5.30

COc1c(N2CCN(CNc3ccc(S(=O)(=O)Nc4nc(C)cc(C)n4)cc3)C(C)C2)c(F)cc2c(=O)c(C(=O)O)cn(C3CC3)c12 (centres undefined)
pIC50 [7]: 7.66

O=C(O)c1ccc(-c2ccc(/C=C3/NC(=O)N(Cc4ccccc4F)C3=O)o2)cc1
pIC50 [7]: 5.11 | pIC50 [8]: 4.49

Cc1cc2nc3c(=O)[nH]c(=O)nc-3n(C)c2cc1C=O
pEC50 [5]: 5.46

CCC[C@@H]1C[C@@H](C(=O)N[C@@H]([C@H]2O[C@H](SC)[C@H](OP(=O)(O)O)[C@@H](O)[C@H]2O)[C@H](C)Cl)N(C)C1 [CLINDAMYCIN PHOSPHATE]
pIC50 [2]: 2.04

COc1ccc2c(c1)Oc1nc(-c3ccc(C)cc3)nc(SCC(=O)Nc3ccc(C(=O)O)cc3)c1C2
pIC50 [7]: 4.92

CCn1cc(C(=O)O)c(=O)c2cc(F)c(N3CCN(CNc4ccc(S(=O)(=O)Nc5nc(C)cc(C)n5)cc4)CC3)cc21
pIC50 [7]: 8.30

CN(N=O)c1cc(O)ccc1O [DEPHOSTATIN]
pIC50 [9]: 5.11

CCN[C@@H]1C[C@H](N)[C@@H](O[C@H]2OC(CN)=CC[C@H]2N)[C@H](O)[C@H]1O[C@H]1OC[C@](C)(O)[C@H](NC)[C@H]1O [NETILMICIN]
pIC50 [1]: 2.10

COc1ccc(C[C@H](N)C(=O)N[C@H]2[C@@H](O)[C@H](n3cnc4c(N(C)C)ncnc43)O[C@@H]2CO)cc1 [PUROMYCIN]
pIC50 [2]: 1.74

O=C1c2c(c3c4cccc(O)c4n([C@@H]4O[C@H](CO)[C@@H](O)[C@H](O)[C@H]4O)c3c3[nH]c4c(O)cccc4c23)C(=O)N1NC(CO)CO
pEC50 (DNA topoisomerase 1): 6.24

NC1=CC(N)=C2C=CC(=O)N=C2C1=O
pIC50 [10]: 5.70
